# Test system: 521955-158-R6-J3-PDC complex spheroid growth, % test/control
# Experiment: Anticancer human tumor 521955-158-R6-J3-PDC patient-derived pancreatic carcinoma cell line growth inhibition [Asc]
# Details: for IC50: curve of first compound; for viability, T/C: stronger effect = lower value
# Procedure, shortened: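 Stromal components (HUVEC and hMSC) are co-assembled with the cancer cells into multicellular spheroids. Drugs are then added singly or paired, at concentrations falling by half-log increments from a clinically achievable maximum, capped at 10 microM without known Cmax.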
# [1] = second compound 0.0316 µM, first compound 0.00316 µM
# [2] = second compound 0.0316 µM, first compound 0.01 µM
# [3] = second compound 0.0316 µM, first compound 0.0316 µM
# [4] = second compound 0.0316 µM, first compound 0.1 µM
# [5] = second compound 0.1 µM, first compound 0.00316 µM
# [6] = second compound 0.1 µM, first compound 0.01 µM
# [7] = second compound 0.1 µM, first compound 0.0316 µM
# [8] = second compound 0.1 µM, first compound 0.1 µM
# [9] = second compound 0.316 µM, first compound 0.00316 µM
# [10] = second compound 0.316 µM, first compound 0.01 µM
# [11] = second compound 0.316 µM, first compound 0.0316 µM
# [12] = second compound 0.316 µM, first compound 0.1 µM
# [13] = second compound 1 µM, first compound 0.00316 µM
# [14] = second compound 1 µM, first compound 0.01 µM
# [15] = second compound 1 µM, first compound 0.0316 µM
# [16] = second compound 1 µM, first compound 0.1 µM
# [17] = second compound 3.16 µM, first compound 0.00316 µM
# [18] = second compound 3.16 µM, first compound 0.01 µM
# [19] = second compound 3.16 µM, first compound 0.0316 µM
# [20] = second compound 3.16 µM, first compound 0.1 µM
# [21] = second compound 10 µM, first compound 0.00316 µM
# [22] = second compound 10 µM, first compound 0.01 µM
# [23] = second compound 10 µM, first compound 0.0316 µM
# [24] = second compound 10 µM, first compound 0.1 µM
# 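Also: spheroids exposed to compounds for 7 days.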
# 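For viability, T/C in this document: 100% = DMSO vehicle control wells.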
compound,measurement,setting,value
CCN1CCN(Cc2ccc(Nc3ncc(F)c(-c4cc(F)c5nc(C)n(C(C)C)c5c4)n3)nc2)CC1 + Cc1c(S(C)(=O)=O)c(-c2cc(F)cc(N3CCN(c4ccc(NS(=O)(=O)c5ccc(NC(CCN6CCC(C(=O)OCCCP(=O)(O)O)CC6)CSc6ccccc6)c(S(=O)(=O)C(F)(F)F)c5)cc4)CC3)c2)c(-c2ccc(Cl)cc2)n1C(C)C,IC50,second compound 0.0316 µM,> 1000 nM
same,IC50,second compound 0.1 µM,> 1000 nM
same,IC50,second compound 0.316 µM,< 3.16 nM
same,IC50,second compound 1 µM,< 3.16 nM
same,IC50,second compound 3.16 µM,< 3.16 nM
same,IC50,second compound 10 µM,< 3.16 nM
same,"viability, T/C",[1],96.2%
same,"viability, T/C",[2],81%
same,"viability, T/C",[3],73.6%
same,"viability, T/C",[4],71.9%
same,"viability, T/C","second compound 0.0316 µM, first compound 0.316 µM",67.6%
same,"viability, T/C","second compound 0.0316 µM, first compound 1 µM",84.4%
same,"viability, T/C",[5],72.3%
same,"viability, T/C",[6],57.5%
same,"viability, T/C",[7],62%
same,"viability, T/C",[8],63.1%
same,"viability, T/C","second compound 0.1 µM, first compound 0.316 µM",82.1%
same,"viability, T/C","second compound 0.1 µM, first compound 1 µM",73.5%
same,"viability, T/C",[9],53%
same,"viability, T/C",[10],49%
same,"viability, T/C",[11],43.9%
same,"viability, T/C",[12],53.6%
same,"viability, T/C","second compound 0.316 µM, first compound 0.316 µM",49.4%
same,"viability, T/C","second compound 0.316 µM, first compound 1 µM",53.9%
same,"viability, T/C",[13],35.6%
same,"viability, T/C",[14],39.1%
same,"viability, T/C",[15],29.4%
same,"viability, T/C",[16],37.3%
same,"viability, T/C","second compound 1 µM, first compound 0.316 µM",34.2%
same,"viability, T/C","second compound 1 µM, first compound 1 µM",41.1%
same,"viability, T/C",[17],21.4%
same,"viability, T/C",[18],18.7%
same,"viability, T/C",[19],18.4%
same,"viability, T/C",[20],19.4%
same,"viability, T/C","second compound 3.16 µM, first compound 0.316 µM",24.2%
same,"viability, T/C","second compound 3.16 µM, first compound 1 µM",26.1%
same,"viability, T/C",[21],30.4%
same,"viability, T/C",[22],16.3%
same,"viability, T/C",[23],15%
same,"viability, T/C",[24],15.2%
same,"viability, T/C","second compound 10 µM, first compound 0.316 µM",26.6%
same,"viability, T/C","second compound 10 µM, first compound 1 µM",28.9%
Cn1ncnc1[C@H]1c2n[nH]c(=O)c3cc(F)cc(c23)N[C@@H]1c1ccc(F)cc1 + Cc1c(S(C)(=O)=O)c(-c2cc(F)cc(N3CCN(c4ccc(NS(=O)(=O)c5ccc(NC(CCN6CCC(C(=O)OCCCP(=O)(O)O)CC6)CSc6ccccc6)c(S(=O)(=O)C(F)(F)F)c5)cc4)CC3)c2)c(-c2ccc(Cl)cc2)n1C(C)C,IC50,second compound 0.0316 µM,> 100 nM
same,IC50,second compound 0.1 µM,> 100 nM
same,IC50,second compound 0.316 µM,4.81 nM
same,IC50,second compound 1 µM,< 0.316 nM
same,IC50,second compound 3.16 µM,< 0.316 nM
same,IC50,second compound 10 µM,< 0.316 nM
same,"viability, T/C","second compound 0.0316 µM, first compound 0.000316 µM",84.8%
same,"viability, T/C","second compound 0.0316 µM, first compound 0.001 µM",92.7%
same,"viability, T/C",[1],70.5%
same,"viability, T/C",[2],82%
same,"viability, T/C",[3],77%
same,"viability, T/C",[4],68.9%
same,"viability, T/C","second compound 0.1 µM, first compound 0.000316 µM",86.3%
same,"viability, T/C","second compound 0.1 µM, first compound 0.001 µM",75.1%
same,"viability, T/C",[5],75.3%
same,"viability, T/C",[6],82.3%
same,"viability, T/C",[7],61%
same,"viability, T/C",[8],67.6%
same,"viability, T/C","second compound 0.316 µM, first compound 0.000316 µM",53.4%
same,"viability, T/C","second compound 0.316 µM, first compound 0.001 µM",54.2%
same,"viability, T/C",[9],52.5%
same,"viability, T/C",[10],44.4%
same,"viability, T/C",[11],40.8%
same,"viability, T/C",[12],51.5%
same,"viability, T/C","second compound 1 µM, first compound 0.000316 µM",35.1%
same,"viability, T/C","second compound 1 µM, first compound 0.001 µM",32.7%
same,"viability, T/C",[13],41.4%
same,"viability, T/C",[14],29.8%
same,"viability, T/C",[15],35%
same,"viability, T/C",[16],40.9%
same,"viability, T/C","second compound 3.16 µM, first compound 0.000316 µM",23%
same,"viability, T/C","second compound 3.16 µM, first compound 0.001 µM",24.3%
same,"viability, T/C",[17],21.1%
same,"viability, T/C",[18],19.9%
same,"viability, T/C",[19],20.8%
same,"viability, T/C",[20],16.4%
same,"viability, T/C","second compound 10 µM, first compound 0.000316 µM",14.8%
same,"viability, T/C","second compound 10 µM, first compound 0.001 µM",17.9%
same,"viability, T/C",[21],26.6%
same,"viability, T/C",[22],15.5%
same,"viability, T/C",[23],15%
same,"viability, T/C",[24],11%
